ChEMBL document CHEMBL1201862, “PubChem BioAssay data set” (2004)
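Protocol summary: plate cells (96-well), add compound at 5 concentrations, incubate 48 h, interpolate endpoints linearly. Here, GI50 denotes the concentration required for 50% inhibition of growth.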 Activity calls are given as the source filed them. Cut-off read from the data, not from the text of the source: active = GI50 up to about 1.1 µM and inactive = higher.

Legend:
Test in all cases: NCI anticancer screen, dose series, 48 h
DLD-1 = tested on: DLD-1
DMS-273 = tested on: DMS-273
HOP-18 = tested on: HOP-18
KM-20L2 = tested on: KM-20L2
LXFL 529 = tested on: LXFL 529
M19-MEL = tested on: M19-MEL
SNB-78 = tested on: SNB-78
XF498 = tested on: XF498
RXF 631 = tested on: RXF 631

Measured: GI50

CC(C)(C)C1CCP(=O)(c2ccccc2)CC1 (stereo unspecified)
inactive: DLD-1 > 100 µM | DMS-273 > 100 µM | HOP-18 > 100 µM | KM-20L2 > 100 µM | LXFL 529 > 100 µM | M19-MEL > 100 µM | SNB-78 > 100 µM | XF498 2.1 µM

Cc1ccc(NC(=O)CCc2nnc3s/c(=C\c4cccc([N+](=O)[O-])c4)c(=O)n23)cc1
inactive: DLD-1 > 100 µM | DMS-273 > 100 µM | HOP-18 > 100 µM | KM-20L2 > 100 µM | LXFL 529 > 100 µM | M19-MEL > 100 µM | RXF 631 60 µM | SNB-78 > 100 µM | XF498 > 100 µM

COc1ccc(C2ON(c3ccccc3)CC=C2C)cc1 (stereo unspecified)
inactive: DLD-1 79.8 µM | DMS-273 64.7 µM | KM-20L2 5.48 µM | LXFL 529 66.8 µM | M19-MEL 43.2 µM | RXF 631 46.6 µM | SNB-78 > 100 µM | XF498 95.7 µM

O=c1cccccc1NCCCNc1cccccc1=O
inactive: DMS-273 > 100 µM | KM-20L2 > 100 µM | LXFL 529 > 100 µM | M19-MEL > 100 µM | RXF 631 31 µM | SNB-78 > 100 µM | XF498 > 100 µM

C/C(CC(=O)Nc1ccc(Cl)c(Cl)c1)=N/NC(=O)C[n+]1ccccc1
inactive: DMS-273 40.9 µM | HOP-18 > 100 µM | KM-20L2 76.9 µM | LXFL 529 66.7 µM | M19-MEL > 100 µM | SNB-78 > 100 µM | XF498 > 100 µM

Cc1ccc(Cl)c(NC(=O)C(=O)C(C(=O)c2ccncc2)C2OC(=O)c3ccccc32)c1 (stereo unspecified)
inactive: DLD-1 > 100 µM | HOP-18 > 100 µM | LXFL 529 > 100 µM | M19-MEL > 100 µM | RXF 631 > 100 µM | SNB-78 > 100 µM | XF498 > 100 µM

CN(CC(=O)O)S(=O)(=O)c1ccc(F)cc1
inactive: DLD-1 > 100 µM | DMS-273 > 100 µM | HOP-18 > 100 µM | KM-20L2 > 100 µM | LXFL 529 > 100 µM | M19-MEL > 100 µM | RXF 631 > 100 µM | XF498 > 100 µM

CC(C(=O)[O-])S(=O)(=O)O.CCc1c2cc(OC)c(OC)cc2cc2c3cc(OC)c(OC)cc3cc[n+]12
inactive: DLD-1 65 µM | DMS-273 45.2 µM | HOP-18 68.1 µM | KM-20L2 > 100 µM | LXFL 529 5.09 µM | M19-MEL 13.6 µM | SNB-78 33.7 µM | XF498 5.64 µM

CCc1ccccc1NC(=O)/C(CC(=O)c1c(C)[n+]([O-])c2ccccc2[n+]1[O-])=N\NS(=O)(=O)c1ccc(C)cc1
inactive: DLD-1 24 µM | DMS-273 35.4 µM | KM-20L2 > 100 µM | LXFL 529 26.3 µM | M19-MEL 16 µM | RXF 631 > 100 µM | SNB-78 33.7 µM

CCCCN1C(=O)C2c3[nH]c4ccccc4c3C3CCCCC3C2C1=O.CCCCN1C(=O)C2c3[nH]c4ccccc4c3[C@@H]3CCCCC3C2C1=O (stereo unspecified)
inactive: DLD-1 12.9 µM | DMS-273 10.3 µM | HOP-18 2.26 µM | KM-20L2 36.6 µM | LXFL 529 13.6 µM | M19-MEL 37.2 µM | RXF 631 13.7 µM | SNB-78 15 µM | XF498 12.5 µM

O/N=C(\c1nc2ccc(Cl)cc2nc1O)C(O)c1ccc(Cl)cc1Cl (stereo unspecified)
inactive: DLD-1 > 100 µM | DMS-273 > 100 µM | KM-20L2 > 100 µM | LXFL 529 > 100 µM | M19-MEL > 100 µM | RXF 631 > 100 µM | SNB-78 > 100 µM | XF498 > 100 µM

COc1cc2c[n+]3ccc4cc(OC)c(OC)cc4c3cc2cc1O
inactive: DLD-1 > 100 µM | HOP-18 > 100 µM | KM-20L2 > 100 µM | LXFL 529 > 100 µM | M19-MEL > 100 µM | RXF 631 > 100 µM | XF498 > 100 µM

CC(C)[Si](OCC1CC(C[C@H]2CC(C[C@H]3C[C@@H](CO[Si](C(C)C)(C(C)C)C(C)C)OC(C)(C)O3)OC(C)(C)O2)OC(C)(C)O1)(C(C)C)C(C)C (stereo partly specified)
inactive: DLD-1 > 100 µM | DMS-273 > 100 µM | HOP-18 > 100 µM | KM-20L2 > 100 µM | M19-MEL > 100 µM | SNB-78 > 100 µM

CC(=O)OC1COC(N2C(=O)C(=O)c3cc(Br)c([N+](=O)[O-])cc32)C(OC(C)=O)C1OC(C)=O (stereo unspecified)
inactive: DLD-1 34.4 µM | DMS-273 > 100 µM | HOP-18 > 100 µM | KM-20L2 > 100 µM | LXFL 529 50.8 µM | M19-MEL 21.2 µM | RXF 631 48.5 µM | SNB-78 > 100 µM | XF498 35.9 µM

COCC(O)CN1C(N)=NC(O)C1O (stereo unspecified)
inactive: DLD-1 > 100 µM | DMS-273 > 10 µM | HOP-18 > 100 µM | KM-20L2 > 100 µM | LXFL 529 > 100 µM | M19-MEL > 100 µM | SNB-78 > 100 µM

O=C1OC(c2ccccc2)C2CC3CC4(CCC3CN12)OCCO4 (stereo unspecified)
inactive: DMS-273 > 100 µM | KM-20L2 > 100 µM | LXFL 529 32.7 µM | RXF 631 > 100 µM | SNB-78 > 100 µM | XF498 70.8 µM

COc1cc(C2C(C(=O)Nc3cc(F)c(F)cc3F)=C(C)NC(C)=C2C(=O)Nc2cc(F)c(F)cc2F)ccc1O
inactive: DLD-1 21.5 µM | KM-20L2 32 µM | LXFL 529 21.5 µM | M19-MEL 23.4 µM | RXF 631 15 µM | SNB-78 22.5 µM | XF498 4.66 µM

C[n+]1cccc(NC(=O)c2ccc(NC(=O)C34CCC(C(=O)Nc5ccc(C(=O)Nc6ccc[n+](C)c6)cc5)(CC3)CC4)cc2)c1
inactive: DLD-1 10.9 µM | DMS-273 6.82 µM | HOP-18 25.2 µM | KM-20L2 > 100 µM | LXFL 529 2.81 µM | M19-MEL 54.1 µM | SNB-78 > 100 µM

CCN(CC)c1ccc(/N=N/c2ccc([N+](=O)[O-])cc2OC(=O)/C=C/c2ccccc2)c(OC(=O)/C=C/c2ccccc2)c1
inactive: DLD-1 4.18 µM | DMS-273 5.5 µM | HOP-18 1.7 µM | LXFL 529 21.5 µM | M19-MEL 5 µM | RXF 631 > 100 µM | SNB-78 > 100 µM | XF498 6.82 µM

COc1ccc2oc(-c3cc4cc(OC)ccc4o3)cc2c1
inactive: DLD-1 > 100 µM | DMS-273 > 100 µM | KM-20L2 > 100 µM | LXFL 529 > 100 µM | RXF 631 > 100 µM | SNB-78 > 100 µM | XF498 > 100 µM

Cn1c2ccccc2c2ccc3c(c21)C(=O)C=CC3=O
inactive: DLD-1 2.3 µM | DMS-273 12.9 µM | HOP-18 2 µM | KM-20L2 17.1 µM | LXFL 529 2.95 µM | M19-MEL 10.5 µM | SNB-78 21.1 µM | XF498 2.15 µM

COC(=O)N/N=C(/Cc1occc(=O)c1O)C(=O)Nc1ccc([N+](=O)[O-])cc1[N+](=O)[O-]
inactive: DLD-1 > 100 µM | DMS-273 > 100 µM | HOP-18 > 100 µM | KM-20L2 > 100 µM | LXFL 529 > 100 µM | M19-MEL > 100 µM | SNB-78 > 100 µM | XF498 > 100 µM
